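In this assay, cells in 96-well plates receive the compound at five concentrations for 48 hours. Endpoints are linearly interpolated between the surrounding concentrations. The concentration for 50% growth inhibition is given as GI50.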 Activity calls are given as the source filed them. No stated cut-off is given here; in the data, active = GI50 up to about 1.1 µM and inactive = higher.
Legend:
Assay in all cases: NCI tumour cell line growth inhibition, 48 h
SK-MEL-5 = tested on: SK-MEL-5
A549 = tested on: A549
NCI-H460 = tested on: NCI-H460
A498 = tested on: A498
RPMI-8226 = tested on: RPMI-8226
OVCAR-5 = tested on: OVCAR-5
SK-OV-3 = tested on: SK-OV-3
CCRF-CEM = tested on: CCRF-CEM
HT-29 = tested on: HT-29
NCI-H522 = tested on: NCI-H522
PC-3 = tested on: PC-3
RXF 393 = tested on: RXF 393
UACC-62 = tested on: UACC-62
OVCAR-4 = tested on: OVCAR-4
SR = tested on: SR
SF-539 = tested on: SF-539
Malme-3M = tested on: Malme-3M
HL-60 = tested on: HL-60

| Compound | GI50 (SK-MEL-5) | GI50 (A549) | GI50 (NCI-H460) | GI50 (A498) | GI50 (RPMI-8226) | GI50 (OVCAR-5) | GI50 (SK-OV-3) | GI50 (CCRF-CEM) | GI50 (HT-29) | GI50 (NCI-H522) | GI50 (PC-3) | GI50 (RXF 393) | GI50 (UACC-62) | GI50 (OVCAR-4) | GI50 (SR) | GI50 (SF-539) | GI50 (Malme-3M) | GI50 (HL-60) |
| --- | --- | --- | --- | --- | --- | --- | --- | --- | --- | --- | --- | --- | --- | --- | --- | --- | --- | --- |
| CC(C)(C)N1NC1C1NN1C(C)(C)C (stereo not drawn) | > 100 µM (inactive) | > 100 µM (inactive) | > 100 µM (inactive) | > 100 µM (inactive) | > 100 µM (inactive) | > 100 µM (inactive) | > 100 µM (inactive) | > 100 µM (inactive) | > 100 µM (inactive) | > 100 µM (inactive) | > 100 µM (inactive) | > 100 µM (inactive) | > 100 µM (inactive) | > 100 µM (inactive) | > 100 µM (inactive) | > 100 µM (inactive) | > 100 µM (inactive) | – |
| CCOC(=O)c1ccc(C(=O)/C(C(C)=O)=C2\CCCN2C)n1C | 42.9 µM (inactive) | > 100 µM (inactive) | > 100 µM (inactive) | 65.8 µM (inactive) | 61.2 µM (inactive) | > 100 µM (inactive) | 30.7 µM (inactive) | 52.5 µM (inactive) | – | 57.5 µM (inactive) | > 100 µM (inactive) | 29.5 µM (inactive) | 49.1 µM (inactive) | 71.1 µM (inactive) | 28.9 µM (inactive) | 0.303 µM (active) | > 100 µM (inactive) | 18.5 µM (inactive) |
| COc1ccc(NC(=O)N(C)CC2(O)CCC(C(C)(C)C)CC2)cc1 (stereo not drawn) | – | 90.6 µM (inactive) | 59.6 µM (inactive) | 81.3 µM (inactive) | 21 µM (inactive) | > 100 µM (inactive) | 80.9 µM (inactive) | 42.5 µM (inactive) | 32.5 µM (inactive) | 32.7 µM (inactive) | 14.7 µM (inactive) | 24.8 µM (inactive) | 35.5 µM (inactive) | 66.2 µM (inactive) | > 100 µM (inactive) | > 100 µM (inactive) | 24.8 µM (inactive) | 63.5 µM (inactive) |
| O=c1c2cc(Br)cc(Br)c2[nH]c(=S)n1-c1ccc(/N=N/c2ccc(O)c3cccnc23)cc1 | 11.9 µM (inactive) | 17.8 µM (inactive) | – | > 100 µM (inactive) | 33.9 µM (inactive) | 74.5 µM (inactive) | > 100 µM (inactive) | – | 39.6 µM (inactive) | 18.7 µM (inactive) | 39.9 µM (inactive) | 55.2 µM (inactive) | – | 57.9 µM (inactive) | 3.61 µM (inactive) | 11.5 µM (inactive) | 18.7 µM (inactive) | 38.1 µM (inactive) |
| FC(F)(Sc1ccccc1)c1nc2ccccc2o1 | 50 µM (inactive) | 30.1 µM (inactive) | 55.5 µM (inactive) | 92.7 µM (inactive) | 40.3 µM (inactive) | 59.7 µM (inactive) | 20.8 µM (inactive) | 19.4 µM (inactive) | 33.6 µM (inactive) | 34.6 µM (inactive) | 35.5 µM (inactive) | 28.5 µM (inactive) | 67.8 µM (inactive) | 97.1 µM (inactive) | 22 µM (inactive) | 63.8 µM (inactive) | 51.1 µM (inactive) | – |
| COC(=O)C/N=C1\NC(=S)N(Cc2ccc(OC)cc2)C12CCCC2 | – | > 100 µM (inactive) | > 100 µM (inactive) | > 100 µM (inactive) | > 100 µM (inactive) | > 100 µM (inactive) | > 100 µM (inactive) | > 100 µM (inactive) | > 100 µM (inactive) | > 100 µM (inactive) | > 100 µM (inactive) | > 100 µM (inactive) | > 100 µM (inactive) | > 100 µM (inactive) | > 100 µM (inactive) | > 100 µM (inactive) | > 100 µM (inactive) | – |
| O=C1Nc2ccccc2/C1=C\c1c(Cl)[nH]c2ccccc12 | 0.414 µM (active) | 1.23 µM (inactive) | 0.597 µM (active) | 1.15 µM (inactive) | 0.589 µM (active) | 1.44 µM (inactive) | 0.32 µM (active) | 0.358 µM (active) | 0.222 µM (active) | 0.736 µM (active) | 0.649 µM (active) | 0.869 µM (active) | 1.05 µM (active) | – | 0.292 µM (active) | 0.374 µM (active) | 0.631 µM (active) | 0.251 µM (active) |
| O=C(/C=C/C=C/c1ccccc1)CCc1ccccc1 | > 100 µM (inactive) | > 100 µM (inactive) | – | > 100 µM (inactive) | > 10 µM (inactive) | > 100 µM (inactive) | > 100 µM (inactive) | 35.2 µM (inactive) | 69.7 µM (inactive) | 50.2 µM (inactive) | 83 µM (inactive) | > 100 µM (inactive) | > 100 µM (inactive) | 70.3 µM (inactive) | 20.3 µM (inactive) | > 100 µM (inactive) | > 100 µM (inactive) | 23.4 µM (inactive) |
| C#CCOC(=O)c1ccccc1OC(C)=O | > 100 µM (inactive) | – | > 100 µM (inactive) | > 100 µM (inactive) | > 100 µM (inactive) | > 100 µM (inactive) | > 100 µM (inactive) | > 100 µM (inactive) | – | > 100 µM (inactive) | > 100 µM (inactive) | > 100 µM (inactive) | > 100 µM (inactive) | > 100 µM (inactive) | > 100 µM (inactive) | > 100 µM (inactive) | – | > 100 µM (inactive) |
